Measured values taken from patent US20250257071A9, “TRICYCLIC COMPOUND, METHOD FOR PREPARING SAME, AND USE THEREOF” (Sichuan Kelun-Biotech Biopharmaceutical Co., Ltd., priority 2021, published 2025).

Biological target: human TLR7 (Homo sapiens (Human), UniProt Q9NYK1)
Assay: Agonistic activity of compounds on HEK-Blue hTLR7 cells (QUANTI-Blue reporter, OD620)
Type: cell-based
Conditions: for Emax (OD620): OD620 at maximum activation effect
Description: • 1. HEK-Blue hTLR7 cells (Invivogen) were cultured in DMEM medium (Hyclone) containing 10% FBS heat-inactivated fetal bovine serum (Corning). On the day of detection, the cell state was observed under a microscope, the cells were collected and resuspended, and the cell concentration was adjusted after counting, 50 μL per well, the total amount of cells was 2×10^4, and the cells were inoculated in a 96-well plate. • 2. After the cells adhered to the wall overnight, 50 μL of the test compound at different concentrations was added into the well plate, so that the final concentrations were 100 μM, 33.3 μM, 11.11 μM, 3.70 μM, 1.23 μM, 0.41 μM, 0.14 μM, 0.05 μM, 0 μM, and the final concentration of DMSO was 1%. The compound was incubated with the cells in a 37° C., 5% CO2 incubator for 20 h. • 3. After the incubation, observation under microscope was performed to determine the maximum signal well, the states of the cells with the highest and lowest concentrations of the compound, and whether the compound will crystalize at high concentration. 10 μL of cell culture supermatant was taken and transferred to a new 96-well transparent plate, 90 μL of QUANTI-Blue (Invivogen) detection reagent was added to each well, and incubated at 37° C. for 3 h, and OD620 was read with a multifunctional microplate reader (BMG LABTECH). • 4. EC50 was calculated by fitting with Graphpad Prism software log(agonist) vs. response—Variable slope, and Emax was the (D620 at which the activation effect of the test compound reached the maximum.

Chain of human TLR7 (Q9NYK1 27-1049): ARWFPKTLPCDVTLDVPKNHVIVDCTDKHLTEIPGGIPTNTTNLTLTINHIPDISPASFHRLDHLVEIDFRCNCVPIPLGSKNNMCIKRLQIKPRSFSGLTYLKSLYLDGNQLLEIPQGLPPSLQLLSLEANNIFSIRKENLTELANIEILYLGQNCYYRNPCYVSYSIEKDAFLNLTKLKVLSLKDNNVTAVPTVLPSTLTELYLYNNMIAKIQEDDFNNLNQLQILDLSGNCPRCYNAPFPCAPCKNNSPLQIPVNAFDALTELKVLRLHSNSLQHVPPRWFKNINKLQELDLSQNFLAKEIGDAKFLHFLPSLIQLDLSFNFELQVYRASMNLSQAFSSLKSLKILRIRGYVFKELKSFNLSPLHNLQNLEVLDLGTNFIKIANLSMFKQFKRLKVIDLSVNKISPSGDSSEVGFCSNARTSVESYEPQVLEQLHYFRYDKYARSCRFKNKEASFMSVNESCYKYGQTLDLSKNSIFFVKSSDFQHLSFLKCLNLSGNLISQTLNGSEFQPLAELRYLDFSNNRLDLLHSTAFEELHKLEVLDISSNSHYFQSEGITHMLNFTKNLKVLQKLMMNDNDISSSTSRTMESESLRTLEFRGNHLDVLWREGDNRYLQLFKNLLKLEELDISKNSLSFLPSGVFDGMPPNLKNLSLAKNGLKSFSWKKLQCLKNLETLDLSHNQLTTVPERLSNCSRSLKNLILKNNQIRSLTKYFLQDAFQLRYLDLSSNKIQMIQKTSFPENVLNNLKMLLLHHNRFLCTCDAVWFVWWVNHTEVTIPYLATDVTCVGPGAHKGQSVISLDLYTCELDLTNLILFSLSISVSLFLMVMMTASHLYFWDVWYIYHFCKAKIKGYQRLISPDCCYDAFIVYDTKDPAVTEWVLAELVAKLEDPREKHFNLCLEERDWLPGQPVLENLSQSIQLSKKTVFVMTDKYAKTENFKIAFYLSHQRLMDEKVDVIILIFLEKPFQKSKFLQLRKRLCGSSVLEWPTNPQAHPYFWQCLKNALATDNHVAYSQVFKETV

activation effect on human TLR7 (in words) | Emax (OD620) | SMILES
strong activation effect | 2.08 OD620 | CCCCc1nc2c(N)nc3ccsc3c2n1CC1CCNCC1 [Compound 25, 2-butyl-1-(piperidin-4-ylmethyl)-1H-imidazo[4,5-d]thieno[3,2-b]pyridine-4-amine]
strong activation effect | 1.83 OD620 | CCCCc1nc2c(N)nc3cc(C4CCOCC4)sc3c2n1CC1CCN(C)CC1 [Compound 40, 2-butyl-1-((1-methylpiperidin-4-yl)methyl)-7-(tetrahydro-2H-pyran-4-yl)-1H-imidazo[4,5-d]thieno[3,2-b]pyridine-4-amine]
strong activation effect | 0.65 OD620 | CCCCc1nc2c(N)nc3cc(C4CCN(C)CC4)sc3c2n1CC1CCN(CCOC)CC1 [Compound 42, 2-butyl-1-{[1-(2-methoxyethyl)hexahydropyridin-4-yl]methyl}-7-(1-methylhexahydropyridin-4-yl)thieno[3,2-b]imidazo[4,5-d]pyridine-4-amine]
strong activation effect | 1.41 OD620 | COCCc1nc2c(N)nc3ccsc3c2n1CC1CCN(C)CC1 [Compound 56, 2-(2-methoxyethyl)-1-[(1-methylhexahydropyridin-4-yl)methyl]thieno[3,2-b]imidazo[4,5-d]pyridine-4-amine]
strong activation effect | 2.18 OD620 | CCCCc1nc2c(N)nc3cc(C)sc3c2n1CC1CCN(CCOCCOCCOCCOCCOCCOCCOC)CC1 [Compound 16, 1-((1-(2,5,8,11,14,17,20-heptaoxadocosan-22-yl)piperidin-4-yl)methyl)-2-butyl-7-methyl-1H-imidazo[4,5-d]thieno[3,2-b]pyridine-4-amine]
strong activation effect | 0.49 OD620 | CCCCc1nc2c(N)nc3cc(C4CCN(C)CC4)sc3c2n1CC1CCN(C)CC1 [Compound 38, 2-butyl-7-(1-methylpiperidin-4-yl)-1-((1-methylpiperidin-4-yl)methyl)-1H-imidazo[4,5-d]thieno[3,2-b]pyridine-4-amine]
strong activation effect | 1.74 OD620 | COCCc1nc2c(N)nc3ccsc3c2n1CCCCN [Compound 4, 1-(4-aminobutyl)-2-(2-methoxyethyl)-1H-imidazo[4,5-d]thieno[3,2-b]pyridine-4-amine]
strong activation effect | 0.84 OD620 | CCCCc1nc2c(N)nc3cc(C4CCNCC4)sc3c2n1CC1CCN(CCOC)CC1 [Compound 41, 2-butyl-7-(hexahydropyridin-4-yl)-1-{[1-(2-methoxyethyl)hexahydropyridin-4-yl]methyl}thieno[3,2-b]imidazo[4,5-d]pyridine-4-amine]
strong activation effect | 0.91 OD620 | CCCCc1nc2c(N)nc3cc(C4CCN(C)CC4)sc3c2n1C [Compound 32, 2-butyl-1-methyl-7-(1-methylpiperidin-4-yl)-1H-imidazo[4,5-d]thieno[3,2-b]pyridine-4-amine]
strong activation effect | 1.78 OD620 | CCCCc1nc2c(N)nc3cc(C)sc3c2n1CC1CCOCC1 [Compound 26, 2-butyl-7-methyl-1-((tetrahydro-2H-pyran-4-yl)methyl)-1H-imidazo[4,5-d]thieno[3,2-b]pyridine-4-amine]
strong activation effect | 1.46 OD620 | CCOCc1nc2c(N)nc3ccsc3c2n1CCCCN [Compound 5, 1-(4-aminobutyl)-2-(2-ethoxymethyl)-1H-imidazo[4,5-d]thieno[3,2-b]pyridine-4-amine]
strong activation effect | 2.23 OD620 | CCCCc1nc2c(N)nc3cc(C)sc3c2n1CC1CCN(C(=O)CCOCCOCCN)CC1 [Compound 17, 1-(4-((4-amino-2-butyl-7-methyl-1H-imidazo[4,5-d]thieno[3,2-b]pyridin-1-yl)methyl)piperidin-1-yl)-3-(2-(2-aminoethoxy)ethoxy)propan-1-one]
strong activation effect | 1.39 OD620 | CCCCc1nc2c(N)nc3cc(C)sc3c2n1CC1CCN(C)CC1 [Compound 28, 2-butyl-7-methyl-1-((1-methylpiperidin-4-yl)methyl)-1H-imidazo[4,5-d]thieno[3,2-b]pyridine-4-amine]
strong activation effect | 1.21 OD620 | CCCCc1nc2c(N)nc3cc(C4CCN(C)CC4)sc3c2n1CC1CCOCC1 [Compound 34, 2-butyl-7-(1-methylpiperidin-4-yl)-1-((tetrahydro-2H-pyran-4-yl)methyl)-1H-imidazo[4,5-d]thieno[3,2-b]pyridine-4-amine]
strong activation effect | 2.40 OD620 | CCCCc1nc2c(N)nc3cc(C)sc3c2n1CC1CCN(CCOCCOCCN)CC1 [Compound 15, 1-((1-(2-(2-(2-aminoethoxy)ethoxy)ethyl)piperidin-4-yl)methyl)-2-butyl-7-methyl-1H-imidazo[4,5-d]thieno[3,2-b]pyridine-4-amine]
strong activation effect | 1.44 OD620 | COCCc1nc2c(N)nc3ccsc3c2n1CC1CCNCC1 [Compound 55, 1-(hexahydropyridin-4-ylmethyl)-2-(2-methoxyethyl) thieno[3,2-b]imidazo[4,5-d]pyridine-4-amine]

SMILES | activation effect on human TLR7 (in words) | Emax (OD620)
CCCCc1nc2c(N)nc3cc(C4=CCN(C)CC4)sc3c2[nH]1 [Compound 8, 2-butyl-7-(1-methyl-1,2,3,6-tetrahydropyridin-4-yl)-1H-imidazo[4,5-d]thieno[3,2-b]pyridine-4-amine] | strong activation effect | 0.56 OD620
